According to PMC11492869, “Dimerization and lysine substitution of melittin have differing effects on bacteria” (Frontiers in Pharmacology, 2024):
Values after ≈ are worked out from the molar mass of the structure shown. Like-named read-outs stand apart in the source and are kept apart here.

Experiments:
Assay type in all cases: cell-based
[1] = system: HEK-293 (ATCC CRL-1573) cells; test: Cytotoxicity (cell lysis), LDH release assay; conditions: for TI (cell lysis): HEK293, LD50/MBC50
Experimental: (§1) To determine toxicity toward mammalian cells, 1 × 10^4 cells/well of HEK-293 (ATCC CRL-1573TM) or H4IIE in a total volume of […] in media (Eagle’s Minimum Essential Medium (EMEM) supplemented with 10% v/v fetal bovine serum, 5% v/v L-glutamine and 5% v/v penicillin/streptomycin) were seeded into 96-well plates and cultured at 37°C in a 5% CO2 incubator for 16–20 h. When cells were ≥90% confluent, the 100 µL media was removed and replaced with 50 μL serial dilutions of the AMP in media (final concentration 20–0.5 μM) and cultured at 37°C in a 5% CO2 incubator for 90 min. From each well, 50 µL was transferred to a new plate. To the 50 μL, 50 µL of lactate dehydrogenase (LDH) solution (CytoTox 96® Non-Radioactive Cytotoxicity Assay kit, Promega) was added to each well and incubated for a further 30 min at room temperature and protected from light. Cell death was determined by measuring absorbance at 490 nm using a microplate reader (PerkinElmer 1,420 Multilabel Counter VICTOR3). Positive and negative controls for inhibition were taken as cells incubated with lysis solution (CytoTox 96® Non-Radioactive Cytotoxicity Assay kit, Promega) and cells incubated in media alone, respectively. The background absorbance of media alone was subtracted from the sample absorbance, and the percentage of inhibition was calculated using the following formula: % Cytotoxicity=A490 test sample−A490 negative control/A490 positive control−A490 negative control×100.
(§2) The percentage of lysis was plotted against peptide concentration, and linear regression analysis was used to determine the AMP concentration needed to lyse 50% (LD50) of the cells.

H4IIE cells [2] = test: Cytotoxicity (cell lysis), LDH release assay; conditions: for TI (cell lysis): H4IIE, LD50/MBC50
Experimental: as §1, §2

S. aureus ATCC 29213 = test: microbe, parasite or virus in culture; conditions: 90 min incubation at 37°C, plated on LB agar 12–24 h, lowest concentration giving less than one CFU (≥99.9% reduction), mean ± SD, at least three biological repeats
Experimental: (§3) For the antimicrobial peptide assays, a 10 mL starter culture was produced by taking single colonies from LB agar plates to inoculate in Lysogeny/Luria Broth (1% w/v Oxoid Tryptone, 0.5% w/v NaCl, 0.5% w/v Oxoid Yeast Extract, pH 7.0, Thermo Scientific Pty, Ltd., Sydney, Australia) for bacteria; S. aureus ATCC 29213 and E. coli ATCC 8739 were grown aerobically at 37°C in an orbital shaker (Minitron, Infors HT) at 200 rpm. After overnight incubation, 0.5–1.0 mL of the starter culture was used to inoculate fresh LB broth (20 mL), and its growth was monitored at 600 nm using a spectrophotometer (model Varian Cary 50 Bio UV-Vis). Bacteria were harvested during the late exponential growth phase, and CFUs/mL were determined using the growth curve data set that correlated OD600 to CFUs/mL.
(§4) Antibacterial assays were undertaken to determine the minimum inhibitory concentration (MIC), the minimum bactericidal concentration (MBC), and the level of membrane disruption of each of the antimicrobial peptides (AMPs) and multimerized AMPs. […] After the 90-min incubation period, the antimicrobial activity (MIC and MBC) was determined as follows:
(§5) The CLSI protocol was followed to determine MBC. After incubation, bacteria were serially diluted (1:10) in PBS, plated on LB agar, and incubated for 12–24 h at 37°C; then, the CFUs were quantified. […]

E. coli ATCC 8739 [3] = conditions: cation-adjusted MHB, 90 min incubation at 37°C, plated on LB agar 12–24 h, lowest concentration giving less than one CFU (≥99.9% reduction), mean ± SD, at least three biological repeats
Experimental: as §3, §4, §5

[4] = system: Chicken red blood cells (RBCs); test: Hemolysis assay
Experimental: Chicken red blood cells (RBCs) in Alsever’s solution (RBCs, Equicell, Victoria, Australia) were diluted 1 in 20 in PBS (pH 7.4), pelleted by centrifugation, and washed three times in PBS (1,000 g, 10 min). The RBCs were counted using a cell counter (Coulter Particle Counter Z series, Beckman Coulter) and diluted to a final concentration of 2 × 10^7 cells/mL. Aliquots (100 μL) of the RBC solution were seeded into a V-bottomed 96-well plate containing 100 μL of serial dilutions (10–0.08 μM) of the AMP in PBS and incubated in a humidified atmosphere containing 5% CO2 at 37°C for 2 h. Following incubation, the RBCs were pelleted in a centrifuge (1,000 g, 10 min), and the amount of hemoglobin released in 100 μL aliquots of the supernatant was determined by measuring the absorbance at 405 nm using a microplate reader (PerkinElmer 1,420 Multilabel Counter VICTOR3). Positive and negative controls for hemolysis were taken as RBC lysed with 1% v/v Triton X-100 and RBC suspension in PBS, respectively. The percentage of hemolysis was calculated using the following formula: % Hemolysis A405 test sample−A405 negative control / A405 positive control−A405 negative controlx 100.
The percentage hemolysis was plotted against peptide concentration, and linear regression analysis was used to determine the hemolytic concentration needed to lyse 50% (HC50) of RBCs.

E. coli ATCC 8739 [5] = conditions: cation-adjusted MHB, 1 × 10^5 cells/well, 90 min incubation with peptide at 37°C, then growth monitored 20 h at OD630, Lambert and Pearson analysis, mean ± SD, at least three biological repeats
Experimental: as §3
Antibacterial assays were undertaken to determine the minimum inhibitory concentration (MIC), the minimum bactericidal concentration (MBC), and the level of membrane disruption of each of the antimicrobial peptides (AMPs) and multimerized AMPs. For each bacterium, a stock solution (2 × 10^6 cells/mL) in cation-adjusted Mueller Hinton Broth (MHB) was made, and an aliquot was incubated with AMPs within 15 min from viable cell count and stock preparation. […] After the 90-min incubation period, the antimicrobial activity (MIC and MBC) was determined as follows: […]

[6] = system: HEK-293 (ATCC CRL-1573) cells; test: Inhibition of cell proliferation, MTS assay; conditions: for TI (cell proliferation): HEK293, IC50/MIC50
Experimental: (§6) To determine the inhibition of cell proliferation, 20 μL of 3-(4,5-dimethylthiazol-2-yl)-5-(3-carboxymethoxyphenyl)-2-(4-sulfophenyl)-2H-tetrazolium (MTS) solution (CellTiter 96 AQueous Non-Radioactive Cell Proliferation Assay kit, Promega) was added to the remaining 100 µL from the toxicity assay, and the plates were incubated for a further 1 h at 37°C in a 5% CO2 incubator protected from light. Cell proliferation was determined by measuring absorbance at 490 nm using a microplate reader (PerkinElmer 1,420 Multilabel Counter VICTOR3). Positive and negative controls for inhibition were taken as cells incubated with lysis solution (CytoTox 96® Non-Radioactive Cytotoxicity Assay kit, Promega) and cells incubated in media alone, respectively. The background absorbance of media alone was subtracted from the samples, and the percentage of inhibition was calculated using the following formula: % Inhibition=A490 test sample−A490 negative control/A490 positive control−A490 negative control×100.
(§7) The percentage of inhibition was plotted against peptide concentration, and linear regression analysis was used to determine the AMP concentration needed to inhibit 50% (IC50) of cell growth.

H4IIE cells [7] = test: Inhibition of cell proliferation, MTS assay; conditions: for TI (cell proliferation): H4IIE, IC50/MIC50
Experimental: as §6, §7

Row | Molecule | TI (cell lysis) ([1]; MBC50 toward S. aureus 29213) | TI (cell lysis) ([1]; MBC50 towards E. coli 8729) | LD50 ([1]; HEK293 cells, LDH release, 90 min exposure at 37°C, 20–0.5 μM, concentration lysing 50% of cells by linear regression, mean ± SD, at least three biological repeats) | LD50 (H4IIE cells [2]; H4IIE cells, LDH release, 90 min exposure at 37°C, 20–0.5 μM, concentration lysing 50% of cells by linear regression, mean ± SD, at least three biological repeats) | TI (cell lysis) (H4IIE cells [2]; MBC50 toward S. aureus 29213) | TI (cell lysis) (H4IIE cells [2]; MBC50 towards E. coli 8729) | MBC (S. aureus ATCC 29213; cation-adjusted MHB) | MBC (E. coli ATCC 8739 [3]) | HC50 ([4]; chicken RBCs in PBS pH 7.4, 2 × 10^7 cells/mL stock, 10–0.08 μM, 2 h at 37°C, absorbance 405 nm, 1% Triton X-100 positive control, mean ± SD, at least three biological repeats) | TI (hemolysis) ([4]; chicken RBCs, HC50/MBC50, MBC50 toward S. aureus 29213) | TI (haemolysis) ([4]; chicken RBCs, HC50/MBC50, MBC50 towards E. coli 8729) | MIC (E. coli ATCC 8739 [5]) | TI (cell proliferation) ([6]; MIC50 toward S. aureus 29213) | TI (cell proliferation) ([6]; MIC50 towards E. coli 8729) | IC50 ([6]; HEK293 cells, MTS proliferation assay after 90 min exposure, 1 h MTS, linear regression, mean ± SD, at least three biological repeats) | IC50 (H4IIE cells [7]; H4IIE cells, MTS proliferation assay after 90 min exposure, 1 h MTS, linear regression, mean ± SD, at least three biological repeats) | TI (cell proliferation) (H4IIE cells [7]; MIC50 toward S. aureus 29213) | TI (cell proliferation) (H4IIE cells [7]; MIC50 towards E. coli 8729) | MBC (S. aureus ATCC 29213; Staphylococcus aureus, ATCC29213, cation-adjusted MHB, read-out: MBC)
1 | CC[C@H](C)[C@H](NC(=O)CN)C(=O)NCC(=O)N[C@@H](C)C(=O)N[C@H](C(=O)N[C@@H](CC(C)C)C(=O)N[C@@H](CCCCN)C(=O)N[C@H](C(=O)N[C@@H](CC(C)C)C(=O)N[C@H](C(=O)N[C@H](C(=O)NCC(=O)N[C@@H](CC(C)C)C(=O)N1CCC[C@H]1C(=O)N[C@@H](C)C(=O)N[C@@H](CC(C)C)C(=O)N[C@H](C(=O)N[C@@H](CO)C(=O)N[C@@H](Cc1c[nH]c2ccccc12)C(=O)N[C@H](C(=O)N[C@@H](CCCCN)C(=O)N[C@@H](CCCNC(=N)N)C(=O)N[C@@H](CCCCN)C(=O)N[C@@H](CCCNC(=N)N)C(=O)N[C@@H](CCC(N)=O)C(=O)N[C@@H](CCC(N)=O)C(N)=O)[C@@H](C)CC)[C@@H](C)CC)[C@@H](C)O)[C@@H](C)O)C(C)C)C(C)C [1. Melittin, Melittin] | 0.85 | 0.17 | 0.75 ± 0.21 µM | 1.79 ± 0.95 µM | 2.05 | 0.41 | 1.76 ± 0.76 µM (≈ 5.01 µg/mL) | 8.67 ± 0.93 µM (≈ 24.7 µg/mL) | 0.59 ± 0.04 µM | 0.67 | 0.14 | 6.89 ± 0.72 µM (≈ 19.6 µg/mL) | 13.18 | 2.49 | 9.47 ± 3.63 µM | 2.88 ± 0.08 µM | 4.01 | 0.76 | 
2 | CN[C@H](CC(C)C)C(=O)N[C@H]1C(=O)N[C@@H](CC(N)=O)C(=O)N[C@H]2C(=O)N[C@H]3C(=O)N[C@H](C(=O)N[C@H](C(=O)O)c4cc(O)cc(O)c4-c4cc3ccc4O)[C@H](O)c3ccc(c(Cl)c3)Oc3cc2cc(c3O[C@@H]2O[C@H](CO)[C@@H](O)[C@H](O)[C@H]2O[C@H]2C[C@](C)(N)[C@H](O)[C@H](C)O2)Oc2ccc(cc2Cl)[C@H]1O [Vancomycin] |  |  |  |  |  |  |  |  |  |  |  |  |  |  |  |  |  |  | 1.61 ± 0.44 µM (≈ 2.33 µg/mL)
3 | Gentamycin |  |  |  |  |  |  |  | 3.3 ± 0.78 µM |  |  |  | 2.27 ± 0.33 µM |  |  |  |  |  |  | 
